Measurements: patent publication US20230203142A1, “TREATMENT OF METABOLIC DISORDERS THROUGH THE TARGETING OF A NOVEL CIRCULATING HORMONE COMPLEX” (The President and Fellows of Harvard College, priority 2020, published 2023)
Blank lines part the entries; values can stand above or below the compound they belong to.

Tests used:
INS1 cells [1] = assay: Glucose-stimulated insulin secretion (GSIS), INS1 cells; assay type: cell-based, rat
Method: This finding was recapitulated in both primary human islets from multiple non-diabetic donors (FIG. 6B), as well as INS1 cells (FIG. 6C). Human islets from review board approved healthy donors were isolated using the Edmonton protocol and provided by the IsletCore and Clinical Islet Laboratory (University of Alberta, Canada). Donors with a BMI<25 and HbA1c<6.0% were used for experiments. Islets were hand-picked three times and cultured at 37° C. in RPMI media with 10% FBS and 1% Penicillin/Streptomycin overnight before use. For INS1 cells, cells were plated at 8000 cells/well in 96-well plates and incubated overnight prior to experimentation. Insulin secretion assay was performed as above using 200 μl/well for each treatment. Cells were lysed using 80 μl ultrapure water and flash freezing. For siRNA experiments, INS1 cells were allowed to reach confluency before transfection of siRNA (Horizon Discovery; L-090381-02-0005) using Lipofectamine 3000 (Thermo Fischer; L3000015) according to manufacturer protocol for 48 hours prior to assays.
As additional controls, it was explored whether lipid binding was required for FABP4 action. […] FABP4 inhibitor studies were performed using BMS-309403 (10 nM; Sigma #BM0015).
To further elucidate the role of purinergic receptors in this signaling process, a potent and selective P2Y1 inhibitor, MRS2179 (Baurand et al., 2001) was utilized. Cells were pre-treated for P2Y1 inhibitor (100 nM; MRS2179, Tocris #0900) during the pre-incubation period.
To confirm activity of this inhibitor, INS1 cells were treated with increasing concentrations of ADP in the presence or absence of MRS2179. […] This supports the hypothesis that the ADP produced by the NDPK-ADK complex signals through the P2Y1 receptor, treatment of INS1 cells with MRS2179 abolished the increase in GSIS associated with addition of NDPK-ADK, with no effect in the presence of NDPK-ADK/FABP4, consistent with the receptor being inhibited by ATP under these conditions (FIG. 6L). […] Treatment of primary mouse islets with H118N NDPK and WT ADK had no effect on GSIS, confirming the requirement of NDPK kinase activity for the biology (FIG. 6N). Additionally, it was modeled that the inhibitory effect of the NDPK-ADK/FABP4 complex on GSIS is dependent on the production of ATP by ADK, as activated by the presence of FABP4. To test this, an ADK inhibitor was utilized. Cells were pre-treated with ADK inhibitor (2 nM; Santa Cruz #sc-202900) during the pre-incubation period.

INS1 cells [2] = assay: Cytosolic calcium flux, Fura-2 AM imaging; conditions: 20 mM glucose
Method: Cells were pre-treated with P2Y1 activator (0.5 nM; MRS2365 Tocris #2157) during the pre-incubation period. Cells were stimulated with ATP (5 μM; Promega #V915A) or ADP (2.5 μM; Promega #V916A) acutely with the addition of LG and HG KRB during the serial stimulation. Cells were treated with 100 ng/ml recombinant human FABP4 (produced in-house), 200 ng/ml recombinant human ADK (Novus Biologicals, product number NBP1-44382 or R&D Systems, product number 8024-AK-025), or 100 ng/ml recombinant human NDPK-A (Acro Biosystems, product number NM1-H5147) where indicated, for the pre-incubation period, as well as during the glucose stimulation.
Briefly, INS1 cells were plated in imaging disks at 5000 cells/dish and cultured in standard media overnight. Cells were washed with PBS, and incubated in imaging buffer without glucose, with or without calcium containing Fura-2 AM (2 mM; ThermoFisher F1201) for 30 minutes at 37° C. Cells were washed twice with fresh PBS, and placed in lml imaging buffer. Calcium flux was evaluated with the addition of 20 mM glucose, 30 mM KCl, or 1 μM Thapsigargin. Extracellular calcium was added at 1.5 mM. Calcium flux measurements were performed using an epifluorescence system coupled to a Ti-S/L100 inverted microscope L100 with fluorescent light source (X-Cite 120LED System) equipped with Lambda DG-4 Plus for UV ratiometric probes. Excitations at 340 nm and 380 nm were used and an emission of 510 nm. Analysis was performed using ImageJ software. Calcium flux was measured from 50 cells per coverslip.

CA33 (a-Ab) = assay: MST epitope mapping: nested NDPK-A peptides with a-Ab; assay type: binding
Method: To define the binding site of a-Ab on NDPK, a nested series of peptides were generated covering human NDPK-A and interaction of each peptide with a-Ab was evaluated by Microscale Thermophoresis (MST) (FIG. 4D). MST is a technology for the interaction analysis of biomolecules. MST is the directed movement of particles in a microscopic temperature gradient. Any change of the hydration shell of biomolecules due to changes in their structure/conformation results in a relative change of the movement along the temperature gradient and is used to determine binding affinities. MST allows measurement of interactions directly in solution without the need of immobilization to a surface (immobilization-free technology).

recombinant NDPK = target: T1, recombinant NDPK (Homo sapiens, UniProt P15531, H118N); assay: Recombinant kinase activity assay, NDPK (ADP-Glo/Kinase-Glo); assay type: biochemical; conditions: kinase activity of NDPK mutant
T1 construct: purchased Acro Biosystems NM1-H5147
T1 sequence (P15531 whole entry H118N): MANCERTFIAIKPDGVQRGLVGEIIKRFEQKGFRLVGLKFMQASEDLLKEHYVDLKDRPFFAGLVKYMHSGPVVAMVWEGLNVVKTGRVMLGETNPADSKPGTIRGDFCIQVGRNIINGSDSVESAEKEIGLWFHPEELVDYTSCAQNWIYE
Method: (§1) An on-bead kinase assay was developed to measure the activity of endogenous NDPK and ADK pulled down from serum using a-Ab or c-Ab conjugated beads. Both NDPK and ADK are bi-directional kinases that will produce ATP or ADP depending on the substrates provided (FIGS. 4B-C). Kinase activity assays were performed in 384-well plates in reaction buffer (PBS with 0.1% BSA, 0.01% F-127, 5 mM MgCl2). Experiments with recombinant proteins were performed at final concentrations of 40 μg/ml for ADK and FABP4, and 20 ug/ml for NDPK, and a reaction volume of 10 μl. Antibodies were used at a final concentration of 80 ug/ml. […] Proteins and substrates were incubated for 1 hr at room temperature, and ADP and ATP production were monitored using ADP-Glo and Kinase-Glo kits, respectively, according the manufacturer instructions (V6930 and V6711 Promega, USA). Luminescence was quantified using a SpectraMax Paradigm plate reader 30 min after the addition of substrate. Consistent with the MS results, ADK activity, as measured by generation of ATP, was specifically observed in samples pulled down with a-Ab but not c-Ab (FIG. 5A). […] To test this possibility, the ATP and ADP generating activity of recombinant ADK was assessed in the presence of the proposed complex components.

primary mouse islets = assay: Glucose-stimulated insulin secretion (GSIS), mouse islets; assay type: cell-based; conditions: primary / WT mouse islets
Method: Primary islet isolation from mice was performed as previously described (Batchuluun et al., 2018; Prentice et al., 2014) and GSIS was assessed following acute treatment with NDPK-ADK in the presence or absence of FABP4. Insulin secretion assays were performed as previously described (Prentice et al., 2014). For primary islets, 20 islets were hand-picked into 1.5 ml tubes, washed twice with Krebs Ringer Buffer (KRB) without glucose, and pre-incubated in 500 μl low glucose (LG; 2.8 mM) KRB for 1 hour at 37° C. KRB was then removed and 250 μl of fresh LG KRB added. Islets were incubated for 20 minutes at 37° C. Supernatant was collected and 250 μl high glucose (HG; 16.7 mM) KRB added. Islets were incubated for 20 minutes at 37° C. In conditions where KCl was used, HG KRB was collected, and 250 μl KC1 (16.7 mM glucose, 30 mM KCl) KRB added. Islets were incubated for 20 minutes at 37° C., and supernatant collected. Following the stimulation protocol, cells were lysed in 100 μl acid ethanol (70% ethanol, 1% HCl in water) and stored at 4° C. overnight. Samples were evaporated using a SpeedVac until dried, and resuspended in 60 μl ultrapure water. DNA was quantified by Nanodrop (ThermoFisher, USA). Insulin from supernatant was quantified using insulin HTRF (Insulin Ultrasensitive Assay kit 62IN2PEH; Cisbio, USA).

recombinant ADK = target: T2, recombinant ADK (Homo sapiens, UniProt P55263); assay: Recombinant kinase activity assay, ADK (Kinase-Glo); assay type: biochemical; conditions: recombinant ADK plus the added component
T2 construct: purchased Novus Biologicals or R&D Systems NBP1-44382 or 8024-AK-025
T2 sequence (P55263 whole entry): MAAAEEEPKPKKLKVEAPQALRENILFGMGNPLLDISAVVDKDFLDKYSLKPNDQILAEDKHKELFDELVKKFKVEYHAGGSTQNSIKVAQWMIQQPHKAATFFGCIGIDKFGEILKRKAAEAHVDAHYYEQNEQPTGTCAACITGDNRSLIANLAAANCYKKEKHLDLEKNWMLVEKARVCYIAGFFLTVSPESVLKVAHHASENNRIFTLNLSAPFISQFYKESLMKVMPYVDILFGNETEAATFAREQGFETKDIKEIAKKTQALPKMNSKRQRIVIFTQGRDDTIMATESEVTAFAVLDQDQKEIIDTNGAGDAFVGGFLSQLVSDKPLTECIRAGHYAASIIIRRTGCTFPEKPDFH
Method: as §1

Compound: Nc1ncnc2c1ncn2[C@@H]1O[C@H](COP(=O)(O)OP(=O)(O)O)[C@@H](O)[C@H]1O [ADP]
- GSIS in the presence of the NDPK-ADK/FABP4 complex (INS1 cells [1]): potentiated
- insulin secretion / GSIS with exogenous nucleotide (INS1 cells [1]): potentiated

Compound: Nc1ncnc2c1ncn2[C@@H]1O[C@H](COP(=O)(O)OP(=O)(O)OP(=O)(O)O)[C@@H](O)[C@H]1O [ATP]
- increase in GSIS with addition of NDPK-ADK (INS1 cells [1]): blunted
- insulin secretion / GSIS with exogenous nucleotide (INS1 cells [1]): suppressed

Compound: Nc1ncnc2c1ncn2[C@@H]1O[C@H](COP(=O)(O)OP(=O)(O)OP(O)(O)=S)[C@@H](O)[C@H]1O [ATPgS]
- increase in GSIS with addition of NDPK-ADK (INS1 cells [1]): more pronounced

Compound: CCc1c(-c2ccccc2)c(-c2ccccc2)nn1-c1ccccc1-c1cccc(OCC(=O)O)c1 [BMS-309403]
- effect on suppressing NDPK-ADK-potentiated GSIS as WT recombinant FABP4 (INS1 cells [1]; FABP4 mutant or FABP4 treated with inhibitor): same effect

Compound: CNc1ncnc2c1ncn2[C@H]1C[C@H](OP(=O)(O)O)[C@@H](COP(=O)(O)O)O1 [MRS2179]
- GSIS in the presence of the NDPK-ADK/FABP4 complex (INS1 cells [1]): no effect
- increase in GSIS with addition of NDPK-ADK (INS1 cells [1]): abolished
- ADP-stimulated increase in GSIS (INS1 cells [1]; increasing concentrations of ADP): completely inhibited

Compound: CSc1nc(N)c2ncn([C@H]3[C@H](O)[C@H](O)[C@]4(COP(=O)(O)OP(=O)(O)O)C[C@H]34)c2n1 [MRS2365, reference compound]
- extracellular calcium influx in response to glucose (INS1 cells [2]): rescued

- binding with a-Ab (in words) (CA33 (a-Ab)): High affinity binding
Compound: GPVVAMVWEGLNVVK [Peptide 8]

- capacity to generate ADP (recombinant NDPK): no capacity
Compound: H118N NDPK: kinase-dead H118N NDPK mutant
- GSIS (primary mouse islets): no effect

- binding with a-Ab (in words) (CA33 (a-Ab)): Low affinity binding
Compound: IKPDGVQRGLVGEII [Peptide 2]

- ADK activity to generate ATP (recombinant ADK): no effect
Compound: NDPK: recombinant human NDPK-A (Acro Biosystems)

- binding with a-Ab (in words) (CA33 (a-Ab)): Low affinity binding
Compound: VGEIIKRFEQKGFRL [Peptide 3]
